For 20 compounds, Ki results are on record in patent US10047098B2, “C5-C6-oxacyclic fused iminopyrimidinone compounds as bace inhibitors, compositions, and their use” (Merck Sharp & Dohme Corp., priority 2014, dated 2018).

Molecules are shown by their SMILES. pKi: −log10 of the molar value.

Experiment [1] concerns the target Recombinant human soluble BACE1 catalytic domain (Homo sapiens (Human), UniProt P56817). Kind of experiment: BACE1 HTRF FRET Assay. It is filed as biochemical. The following applies: Ki calculated from IC50 using the Cheng-Prusoff equation; QSY7-APPswe-Eu substrate, pH 5.0; read-out: BACE-1 Ki. The text has this: Reagents: Na^+-Acetate pH 5.0; 1% Brij-35; Glycerol; Dimethyl Sulfoxide (DMSO); Recombinant human soluble BACE1 catalytic domain (>95% pure); APP Swedish mutant peptide substrate (QSY7-APP^swe-Eu): QSY7-EISEVNLDAEFC-Europium-amide.
A homogeneous time-resolved FRET assay can be used to determine IC50 values for inhibitors of the soluble human BACE1 catalytic domain. This assay monitors the increase of 620 nm fluorescence that resulted from BACE1 cleavage of an APPswedish APP^swe mutant peptide FRET substrate (QSY7-EISEVNLDAEFC-Europium-amide). This substrate contains an N-terminal QSY7 moiety that serves as a quencher of the C-terminal Europium fluorophore (620 nm Em). In the absence of enzyme activity, 620 nm fluorescence is low in the assay and increased linearly over 3 hours in the presence of uninhibited BACE1 enzyme. Inhibition of BACE1 cleavage of the QSY7-APP^swe-Eu substrate by inhibitors is manifested as a suppression of 620 nm fluorescence.
Varying concentrations of inhibitors at 3× the final desired concentration in a volume of 10 ul are preincubated with purified human BACE1 catalytic domain (3 nM in 10 μl) for 30 minutes at 30° C. in reaction buffer containing 20 mM Na-Acetate pH 5.0, 10% glycerol, 0.1% Brij-35 and 7.5% DSMO. Reactions are initiated by addition of 10 μl of 600 nM QSY7-APP^swe-Eu substrate (200 nM final) to give a final reaction volume of 30 μl in a 384 well Nunc HTRF plate. The reactions are incubated at 30° C. for 1.5 hours. The 620 nm fluorescence is then read on a Rubystar HTRF plate reader (BMG Labtechnologies) using a 50 millisecond delay followed by a 400 millisecond acquisition time window. Inhibitor IC50 values are derived from non-linear regression analysis of concentration response curves. Ki values are then calculated from IC50 values using the Cheng-Prusoff equation using a previously determined […] of 8 μM for the QSY7-APP^swe-Eu substrate at BACE1.

For experiment [2], the target named is purified human autoBACE-2 (Homo sapiens (Human), UniProt Q9Y5Z0). Nature of the experiment: BACE-2 Assay (BACE-HTRF assay). It is filed as biochemical. To be noted: Ki calculated from IC50 using the Cheng-Prusoff equation; QSY7-EISEVNLDAEFC-Eu-amide substrate, pH 5.0. Here is the method: Inhibitor IC50s at purified human autoBACE-2 are determined in a time-resolved endpoint proteolysis assay that measures hydrolysis of the QSY7-[…]-Eu-amide FRET peptide substrate (BACE-HTRF assay). […] DMSO is present at 5% final concentration in the assay. Following laser excitation of sample wells at 320 nm, the fluorescence signal at 620 nm is collected for 400 ms following a 50 μs delay on a RUBYstar HTRF plate reader (BMG Labtechnologies). Raw RFU data is normalized to maximum (1.0 nM BACE/DMSO) and minimum (no enzyme/DMSO) RFU values. […] The Ki values are calculated from the IC50 using the Cheng-Prusoff equation.
Chain of purified human autoBACE-2 (Q9Y5Z0 63-473 limits assumed): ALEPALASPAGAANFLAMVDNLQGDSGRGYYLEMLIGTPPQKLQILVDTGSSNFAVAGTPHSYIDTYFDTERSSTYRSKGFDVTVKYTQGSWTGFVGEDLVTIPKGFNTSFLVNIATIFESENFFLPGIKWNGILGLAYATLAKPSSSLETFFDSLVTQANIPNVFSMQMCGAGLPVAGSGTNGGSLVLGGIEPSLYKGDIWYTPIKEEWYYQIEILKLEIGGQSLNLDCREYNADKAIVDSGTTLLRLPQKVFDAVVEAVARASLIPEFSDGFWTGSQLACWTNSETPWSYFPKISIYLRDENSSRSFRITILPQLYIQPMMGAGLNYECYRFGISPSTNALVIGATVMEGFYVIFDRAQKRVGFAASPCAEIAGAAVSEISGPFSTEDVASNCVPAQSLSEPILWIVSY

Chain of Recombinant human soluble BACE1 catalytic domain (P56817 75-416): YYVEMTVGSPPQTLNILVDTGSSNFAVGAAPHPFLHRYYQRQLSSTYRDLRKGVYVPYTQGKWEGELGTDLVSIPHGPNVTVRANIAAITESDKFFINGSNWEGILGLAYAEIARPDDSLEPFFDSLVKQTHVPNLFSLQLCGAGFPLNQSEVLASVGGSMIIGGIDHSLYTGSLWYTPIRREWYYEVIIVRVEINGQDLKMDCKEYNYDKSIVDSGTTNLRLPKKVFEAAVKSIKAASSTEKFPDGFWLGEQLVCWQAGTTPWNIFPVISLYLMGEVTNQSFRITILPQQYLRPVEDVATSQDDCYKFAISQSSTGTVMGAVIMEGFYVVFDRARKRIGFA

The pKi is the negative decadic logarithm of the Ki, by convention in mol/L. In the case of `C[C@H]1C[C@H]2C(=O)N(C)C(=N)N[C@@]2(c2ccc(F)cc2F)CO1` [Example 11, (4aR,65,8aS)-8a-(2,4-difluorophenyl)-2-imino-3,6-dimethylhexahydro-1H-pyrano[3,4-d]pyrimidin-4(4aH)-one], the pKi in experiment [1] was 6.96; in experiment [2] it was 6.98.
Taken in the same sequence, the figures for `COC[C@H]1C[C@H]2C(=O)N(C)C(=N)N[C@@]2(c2cc(OCC3CC3)ccc2F)CO1` [Example 32, (4aR,6R,8aS)-8a-(5-(cyclopropylmethoxy)-2-fluorophenyl)-2-imino-6-(methoxymethyl)-3-methylhexahydro-1H-pyrano[3,4-d]pyrimidin-4(4aH)-one] were 7.68 and 8.05.
For the compound `CN1C(=N)N[C@@]2(c3cc(Oc4ncccc4F)ccc3F)COCC[C@H]2C1=O` [Example 87, (4aR,8aS)-8a-(2-fluoro-5-((3-fluoropyridin-2-yl)oxy)phenyl)-2-imino-3-methylhexahydro-1H-pyrano[3,4-d]pyrimidin-4(4aH)-one], the results for the pKi in experiment [1] and in experiment [2] were 7.57 and 7.87, respectively.
Taken in the same sequence, the figures for `COC[C@H]1C[C@H]2C(=O)N(C)C(=N)N[C@@]2(c2cc(Oc3cc(C#N)ccn3)ccc2F)CO1` [Example 30, 2-(4-fluoro-3-((4aR,6R,8aS)-2-imino-6-(methoxymethyl)-3-methyl-4-oxohexahydro-1H-pyrano[3,4-d]pyrimidin-8a(8H)-yl)phenoxy)isonicotinonitrile] were 8.52 and 7.60.
Taken in the same sequence, the figures for `COC[C@H]1C[C@H]2C(=O)N(C)C(=N)N[C@@]2(c2cc(Oc3cc(C#N)ccn3)c(F)cc2F)CO1` [Example 2, 2-(2,4-difluoro-5-((4aR,6R,8aS)-2-imino-6-(methoxymethyl)-3-methyl-4-oxohexahydro-1H-pyrano[3,4-d]pyrimidin-8a(8H)-yl)phenoxy)isonicotinonitrile] were 8.52 and 7.96.
Taken in the same sequence, the figures for `C=CCCOc1cc([C@]23CO[C@@H](C)C[C@H]2C(=O)N(C)C(=N)N3)c(F)cn1` [Example 93, (4aR,6S,8aS)-8a-(2-(but-3-en-1-yloxy)-5-fluoropyridin-4-yl)-2-imino-3,6-dimethylhexahydro-1H-pyrano[3,4-d]pyrimidin-4(4aH)-one] were 7.79 and 8.35.
In the case of `C[C@H]1C[C@H]2C(=O)N(C)C(=N)N[C@@]2(c2cc(Oc3cc4ccccc4cn3)ccc2F)CO1` [Example 77, (4aR,6S,8aS)-8a-(2-fluoro-5-(isoquinolin-3-yloxy)phenyl)-2-imino-3,6-dimethylhexahydro-1H-pyrano[3,4-d]pyrimidin-4(4aH)-one], the pKi in experiment [1] was 5.84; in experiment [2] it was 6.62.
Taken in the same sequence, the figures for `CN1C(=N)N[C@@]2(c3cc(Oc4ccnc(-n5cncn5)c4)ccc3F)CO[C@@H](C3CC3)C[C@H]2C1=O` [Example 16, (4aR,6R,8aS)-8a-(5-((2-(1H-1,2,4-triazol-1-yl)pyridin-4-yl)oxy)-2-fluorophenyl)-6-cyclopropyl-2-imino-3-methylhexahydro-1H-pyrano[3,4-d]pyrimidin-4(4aH)-one] were 7.37 and 7.38.
Taken in the same sequence, the figures for `CN1C(=N)N[C@@]2(c3cc(O)ccc3F)CO[C@@H](c3ccc(F)cc3)C[C@H]2C1=O` [Example 84, (4aR,6R,8aS)-8a-(2-fluoro-5-hydroxyphenyl)-6-(4-fluorophenyl)-2-imino-3-methylhexahydro-1H-pyrano[3,4-d]pyrimidin-4(4aH)-one] were 7.15 and 7.76.
Taken in the same sequence, the figures for `C[C@H]1C[C@H]2C(=O)N(C)C(=N)N[C@@]2(c2cc(O)ccc2F)CO1` [Example 64, (4aR,6S,8aS)-8a-(2-fluoro-5-hydroxyphenyl)-2-imino-3,6-dimethylhexahydro-1H-pyrano[3,4-d]pyrimidin-4(4aH)-one] were 6.45 and 7.08.
Regarding `Cc1cnc(Oc2ccc(F)c([C@]34CO[C@@H](C5CC5)C[C@H]3C(=O)N(C)C(=N)N4)c2)c(F)c1` [Example 60, (4aR,6R,8aS)-6-cyclopropyl-8a-(2-fluoro-5-((3-fluoro-5-methylpyridin-2-yl)oxy)phenyl)-2-imino-3-methylhexahydro-1H-pyrano[3,4-d]pyrimidin-4(4aH)-one], the pKi in experiment [1] was 6.92; in experiment [2], 6.90.
Taken in the same sequence, the figures for `COC[C@H]1C[C@H]2C(=O)N(C)C(=N)N[C@@]2(c2cc(Oc3cc(OC)ccn3)c(F)cc2F)CO1` [Example 4, (4aR,6R,8aS)-8a-(2,4-difluoro-5-((4-methoxypyridin-2-yl)oxy)phenyl)-2-imino-6-(methoxymethyl)-3-methylhexahydro-1H-pyrano[3,4-d]pyrimidin-4(4aH)-one] were 7.70 and 7.21.
Taken in the same sequence, the figures for `CN1C(=N)N[C@@]2(c3cc(Oc4cc(C#N)ccn4)ccc3F)CO[C@@H](C3CC3)C[C@H]2C1=O` [Example 14, 2-(3-((4aR,6R,8aS)-6-cyclopropyl-2-imino-3-methyl-4-oxohexahydro-1H-pyrano[3,4-d]pyrimidin-8a(8H)-yl)-4-fluorophenoxy)isonicotinonitrile] were 8.70 and 7.89.
Taken in the same sequence, the figures for `CN1C(=N)N[C@@]2(c3cc(Oc4cncc(C#N)c4)ccc3F)CO[C@@H](C3CC3)C[C@H]2C1=O` [Example 27, 5-(3-((4aR,6R,8aS)-6-cyclopropyl-2-imino-3-methyl-4-oxohexahydro-1H-pyrano[3,4-d]pyrimidin-8a(8H)-yl)-4-fluorophenoxy)nicotinonitrile] were 8.00 and 7.29.
Regarding `CN1C(=N)N[C@@]2(c3cc(OCC4CC(F)(F)C4)ccc3F)CO[C@@H](C3CC3)C[C@H]2C1=O` [Example 51, (4aR,6R,8aS)-6-cyclopropyl-8a-(5-((3,3-difluorocyclobutyl)methoxy)-2-fluorophenyl)-2-imino-3-methylhexahydro-1H-pyrano[3,4-d]pyrimidin-4(4aH)-one], the pKi in experiment [1] was 7.26; in experiment [2] it was 7.38.
Taken in the same sequence, the figures for `CN1C(=N)N[C@@]2(c3cc(Oc4cncc(C(F)F)n4)ccc3F)CO[C@@H](C3CC3)C[C@H]2C1=O` [Example 29, (4aR,6R,8aS)-6-cyclopropyl-8a-(5-((6-(difluoromethyl)pyrazin-2-yl)oxy)-2-fluorophenyl)-2-imino-3-methylhexahydro-1H-pyrano[3,4-d]pyrimidin-4(4aH)-one] were 7.80 and 7.27.
Taken in the same sequence, the figures for `CN1C(=N)N[C@@]2(c3cc(OCC45CC(C#N)(C4)C5)ccc3F)CO[C@@H](C3CC3)C[C@H]2C1=O` [Example 37, 3-((3-((4aR,6R,8aS)-6-cyclopropyl-2-imino-3-methyl-4-oxohexahydro-1H-pyrano[3,4-d]pyrimidin-8a(8H)-yl)-4-fluorophenoxy)methyl)bicyclo[1.1.1]pentane-1-carbonitrile] were 8.05 and 6.90.
Taken in the same sequence, the figures for `CN1C(=N)N[C@@]2(c3cc(Oc4ncncc4F)ccc3F)CO[C@@H](C3CC3)CC2C1=O` (stereo partly drawn) [Example 58, (6R,8aS)-6-cyclopropyl-8a-(2-fluoro-5-((5-fluoropyrimidin-4-yl)oxy)phenyl)-2-imino-3-methylhexahydro-IH-pyrano[3,4-d]pyrimidin-4(4aH)-one] were 7.89 and 7.46.
As for `CN1C(=N)N[C@@]2(c3cc(Br)ccc3F)COCC[C@H]2C1=O` [Example 86, (4aR,8aS)-8a-(5-bromo-2-fluorophenyl)-2-imino-3-methylhexahydro-IH-pyrano[3,4-d]pyrimidin-4(4aH)-one], the pKi in experiment [1] is 5.92; in experiment [2] it was 6.53.
Taken in the same sequence, the figures for `CN1C(=N)N[C@@]2(c3cc(OCC(F)(F)F)ccc3F)CO[C@@H](C3CC3)C[C@H]2C1=O` [Example 55, (4aR,6R,8aS)-6-cyclopropyl-8a-(2-fluoro-5-(2,2,2-trifluoroethoxy)phenyl)-2-imino-3-methylhexahydro-1H-pyrano[3,4-d]pyrimidin-4(4aH)-one] were 6.20 and 5.34.
